This note sets out measurements from paper PMC10518717, “High-Throughput Screening and Proteomic Characterization of Compounds Targeting Myeloid-Derived Suppressor Cells” (Molecular & Cellular Proteomics : MCP, 2023).

The assay has as its system NUP-MDSC. Put plainly: Global proteome expression profiling of compound-treated NUP-MDSC (TMT LC-MS/MS). In kind it is cell-based, mouse. Conditions: for normalized reporter intensities R1: replicate R1, compound-treated NUP-MDSC; for normalized reporter intensities R3: replicate R3, compound-treated NUP-MDSC; for log2 FC cmpd2/cmpd3: cmpd2 versus cmpd3, NUP-MDSC. As for the experimental part:
After treatments, medium was removed, cells were washed twice with PBS, and the cell pellets were further subjected to proteomic sample preparation.
The cell pellet was reconstituted in 2% SDS in 50 mM Tris–HCl pH 7.5 and lysed by heating to 95 °C for 10 min. One microliter of 100% TFA was added to each sample to hydrolyze DNA, and the pH was subsequently adjusted to 8.5 with 3 M Tris solution. Disulfide bonds were reduced with 10 mM DTT for 45 min at 37 °C, followed by alkylation of cysteines with 55 mM CAA for 30 min at room temperature. Prior to tryptic digestion, the detergent was removed from lysates by SP3 cleanup on an Agilent BRAVO system (Agilent Technologies), following the protocol first described by Hughes et al. ([34]). Briefly, lysate containing 200 μg of protein was mixed with SP3 beads, and proteins were precipitated onto a 50:50 mixture of Sera-Mag Speed Bead types A and B (Thermo Fisher Scientific) in 58% acetonitrile. Beads were washed three times with 80% ethanol in water and once with acetonitrile. Tryptic digest was performed in 100 μl of digestion buffer (2 mM CaCl2 in 25 mM Hepes, pH 8.5) with a 1:50 enzyme-to-protein ratio. Bead-precipitated proteins were digested at 37 °C overnight. On the next day, the supernatant of each sample was transferred to a new well and vacuum dried.
Dried peptides were reconstituted in water and labeled with the respective TMT10plex-labeling reagent as described previously ([35]) with a protein to tandem mass tag (TMT) reagent ratio of 1:2. Labeled samples were pooled, vacuum dried, and reconstituted in 0.1% formic acid (FA) prior to desalting on SepPAC50 columns (waters corp.). Peptides were fractionated using a Dionex Ultra 3000 HPLC system with a Waters XBridge BEH130 C18 3.5 um 2.1 × 250 mm column as described previously ([36]). Ninety-six fractions were collected and pooled to 48. For the full proteome analysis, one fifth of each fraction was transferred to a new 96-well plate and both plates were vacuum dried. For the phosphopeptide analysis, dried peptides were reconstituted in 55 μl 0.1% TFA in 30% ACN, pooled from 48 to 12 fractions, and mixed with 70 μl priming buffer (0.1% TFA, 100% ACN). Phosphopeptides were enriched from each of the 12 fractions using Fe(III)-IMAC-NTA cartridges on the AssayMAP BRAVO (Agilent Technologies) platform as described previously ([36]). Phosphopeptides were eluted with 60 μl 1% ammonia, vacuum dried, and stored at −20 °C prior to LC-MS/MS analysis.
The Fusion Lumos was operated in data-dependent acquisition and positive ionization mode. Samples were measured employing a MS3 method. In brief, full scan MS1 spectra were recorded in the orbitrap (OT) from 360 to 1560 m/z at 60,000 resolution using an automatic gain control (AGC) target value of 4e5 charges and a maximum injection time (maxIT) of 50 ms. Iontrap-MS2 spectra for peptide identification were acquired using higher energy collision dissociation (HCD) fragmentation with 32% normalized collision energy (NCE), an isolation window of 0.6 m/z, and an AGC target value of 1.2e4 charges. To obtain quantitative information on TMT reporter ions, each peptide precursor was fragmented again as for MS2 analysis followed by synchronous selection of the up to eight most intense peptide fragments in the iontrap ([37]) and further fragmentation via HCD using a NCE of 55%. The MS3 scan was recorded in the OT at 50,000 resolution (scan range 100–1000 m/z, isolation window of 1.2 m/z, AGC of 1e5 charges, maxIT of 86 ms). The cycle time was 1.2 s, and the dynamic exclusion lasted for 50 s.
Peptide, protein, and phosphorylation site identification and quantification were performed with MaxQuant software (v. 1.6.3.3, https://www.maxquant.org/) with standard settings for reporter ion MS3 unless described otherwise ([39]). Isotope impurities of the TMT lot were specified to allow MaxQuant the automated correction of TMT intensities. […]

The mark [1] stands for this setting: protein 0610011F06Rik / Mettl26 (Q9DCS2).
Setting [2] is: protein 0610037L13Rik / Czib (Q8BHG2).
Where [3] appears, read: protein Trappc2 (Q8R3W2;Q9CQP2).

Structures are written as SMILES.

In the case of `c1ccc2c(c1)c(-n1ccnc1)nn1nnnc21` [compound 3], the “normalized reporter intensities R1” value was found to be 20.3551 under setting [1], 20.1036 under setting [2], 17.1673 (protein Bap18 (D3Z687;Q9DCT6)) and 18.5332 under setting [3]. Further, the “normalized reporter intensities R3” value reads like this: under setting [1], 20.1713; under setting [2], 20.057; (protein Bap18 (D3Z687;Q9DCT6)) 17.2868; under setting [3], 18.3626.
`CCOC(=O)c1nnn(-c2nn3nnnc3c3ccccc23)c1C` [compound 2]: the “expression of proteins associated with detoxification by peroxiredoxin and further ROS-reducing proteins (Prdx1, Txnrd1, Srxn1, Cat, Nqo1, Blvrb)” value (3xEC50, 72 h, relative to compound 3 at 10 μM) is “upregulated”. Moreover, the “log2 FC cmpd2/cmpd3” value is, setting by setting: under setting [1], -0.03832; under setting [2], -0.06333; (protein Bap18 (D3Z687;Q9DCT6)) -0.2777; under setting [3], -0.004852. Also, the “normalized reporter intensities R1” value reads like this: under setting [1], 20.3044; under setting [2], 20.0663; (protein Bap18 (D3Z687;Q9DCT6)) 16.8475; under setting [3], 18.4905. The “normalized reporter intensities R3” value came out at 20.1769 under setting [1], 19.9557 under setting [2], 16.9614 (protein Bap18 (D3Z687;Q9DCT6)) and 18.3959 under setting [3].
